Target: T1, human P2X4 (Homo sapiens, UniProt Q99571)
T1 construct: expressed in transfected cells
T1 sequence (Q99571 1-388): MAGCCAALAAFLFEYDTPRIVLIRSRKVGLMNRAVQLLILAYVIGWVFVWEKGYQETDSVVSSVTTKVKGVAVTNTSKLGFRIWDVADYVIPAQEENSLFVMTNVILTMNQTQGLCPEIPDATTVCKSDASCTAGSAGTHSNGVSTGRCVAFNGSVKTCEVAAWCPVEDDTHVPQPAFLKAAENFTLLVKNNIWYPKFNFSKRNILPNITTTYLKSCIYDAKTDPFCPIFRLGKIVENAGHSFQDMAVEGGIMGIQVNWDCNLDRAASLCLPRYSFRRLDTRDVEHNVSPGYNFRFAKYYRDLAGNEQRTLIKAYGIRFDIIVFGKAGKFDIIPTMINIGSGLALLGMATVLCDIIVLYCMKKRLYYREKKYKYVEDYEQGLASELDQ
Assay: Human P2X4 HEK Cell FLIPR Assay
Type: cell-based
Conditions: HEK293 stably expressing human P2X4, agonist Bz-ATP 3 μM (EC80); for IC50: read-out: Human P2X4 HEK Cells (FLIPR Assay) avg IC50
Description: Compounds were tested on a HEK293 cell line stably expressing human P2X4. Cells were cultured on poly-D-lysine-coated 384-well plates at a density of 15,000 cells/well and incubated overnight at 37° C., 5% CO2. P2X4 function was assessed by measuring intracellular calcium fluxes caused by Benzoylbenzoyl-ATP (Bz-ATP) using the calcium-chelating dye Fluo8-AM (Molecular Devices) with the Fluorescent Imaging Plate Reader Tetra (FLIPR^Tetra; Molecular Devices CA). On the day of the assay, the medium was removed and the cells were incubated for 30 min at 37° C. and 5% CO2 in 30 μl of dye buffer (Hank's balanced salt solution, 10 mM HEPES, 1.8 mM CaCl2, 1 mM MgCl2, 2 mM probenecid, 5 mM D-glucose monohydrate, 5 μM Fluo8-AM, pH=7.4). Compounds diluted in probenecid buffer (Hank's balanced salt solution, 10 mM HEPES, 1.8 mM CaCl2, 1 mM MgCl2, 2 mM probenecid, 5 mM D-glucose monohydrate, pH=7.4) at ten concentrations ranging from 25 μM to 1 nM (final concentration) were dispensed and incubated for 30 min at room temperature. […] The final assay volume was 50 μl and final DMSO concentration was 0.5%.
The fluorescence intensity reflecting intracellular calcium changes was recorded before and after Bz-ATP addition, at an excitation and emission wavelengths of 470-495 nm and 515-575 nm respectively.
The compounds were tested in triplicates and fluorescence intensity raw data normalized to the agonist control and fitted to the four-parameter logistic equation:
Y=Bottom+(Top−Bottom)/(1+10^((Log IC50−X)*HillSlope))
Assay plate acceptance was based on the signal window (S/B)[…] and the reference compound pIC50 within ±3σ the mean of historic pIC50 of the compound. Failure to meet two of the three criteria determined exclusion of the plate's results.

Row | Compound | Human P2X4 HEK Cells (FLIPR Assay) avg Efficacy | IC50
1 | CC(=O)N(c1ccc(C#N)c(C(F)(F)F)c1)c1cc(NC(=O)Cc2ccccc2Cl)ccn1 [Example 10, N-{4-[2-(2-chlorophenyl)acetamido]pyridin-2-yl}-N-[4-cyano-3-(trifluoromethyl)phenyl]acetamide] | 94% | 
2 | CC(=O)N(c1ccc(C#N)c(C(F)(F)F)c1)c1cc(NC(=O)Cc2cccc(F)c2Cl)ccn1 [Example 11, N-{4-[2-(2-chloro-3-fluorophenyl)acetamido]pyridin-2-yl}-N-[4-cyano-3-(trifluoromethyl)phenyl]acetamide] | 100% | 
3 | CC(=O)N(c1ccc(C#N)c(C(F)(F)F)c1)c1cc(NC(=O)Cc2c(Cl)cccc2Cl)ccn1 [Example 12, N-[4-cyano-3-(trifluoromethyl)phenyl]-N-{4-[2-(2,6-dichlorophenyl)acetamido]pyridin-2-yl}acetamide] | 101% | 
4 | CC(=O)N(c1ccc(Cl)c(C#N)c1)c1cc(NC(=O)Cc2ccccc2Cl)ccn1 [Example 16, N-(4-chloro-3-cyanophenyl)-N-{4-[2-(2-chlorophenyl)acetamido]pyridin-2-yl}acetamide] | 95% | 388 nM
5 | CC(=O)N(c1ccc(Cl)c(C#N)c1)c1cc(NC(=O)Cc2ccc(F)cc2Cl)ccn1 [Example 17, N-(4-chloro-3-cyanophenyl)-N-{4-[2-(2-chloro-4-fluorophenyl)acetamido]pyridin-2-yl)acetamide] | 99% | 638 nM
6 | CC(=O)N(c1ccc(Cl)c(C#N)c1)c1cc(NC(=O)Cc2c(Cl)cccc2Cl)ccn1 [Example 19, N-(4-chloro-3-cyanophenyl)-N-{4-[2-(2,6-dichlorophenyl)acetamido]pyridin-2-yl}acetamide] | 103% | 542 nM
7 | CC(=O)N(c1ccccc1)c1cc(NC(=O)Cc2c(F)cccc2Cl)ccn1 [Example 28, N-{4-[2-(2-chloro-6-fluorophenyl)acetamido]pyridin-2-yl}-N-phenylacetamide] | 91% | 777 nM
8 | CC(=O)N(c1ccc(C)cc1)c1cc(NC(=O)Cc2c(Cl)cccc2Cl)ccn1 [Example 46, N-{4-[2-(2,6-dichlorophenyl)acetamido]pyridin-2-yl}-N-(4-methylphenyl)acetamide] | 103% | 551 nM
9 | CC(=O)N(c1ccc(OC(F)F)cc1)c1cc(NC(=O)Cc2c(Cl)cccc2Cl)ccn1 [Example 49, N-{4-[2-(2,6-dichlorophenyl)acetamido]pyridin-2-yl}-N-[4-(difluoromethoxy)phenyl]acetamide] | 100% | 520 nM
10 | CC(=O)N(c1ccc(Cl)c(F)c1)c1cc(NC(=O)Cc2c(Cl)cccc2Cl)ccn1 [Example 61, N-(4-chloro-3-fluorophenyl)-N-{4-[2-(2,6-dichlorophenyl)acetamido]pyridin-2-yl)acetamide] | 98% | 604 nM
11 | CCc1cc(Cl)c(CC(=O)Nc2ccnc(N(C(C)=O)c3ccc(F)c(F)c3)c2)c(Cl)c1 [Example 75, N-{4-[2-(2,6-dichloro-4-ethylphenyl)acetamido]pyridin-2-yl}-N-(3,4-difluorophenyl)acetamide] | 96% | 919 nM
12 | COc1ccc(N(C(C)=O)c2cc(NC(=O)Cc3ccc(F)cc3Cl)ccn2)cc1F [Example 78, N-{4-[2-(2-chloro-4-fluorophenyl)acetamido]pyridin-2-yl}-N-(3-fluoro-4-methoxyphenyl)acetamide] | 94% | 573 nM
13 | CC(=O)N(c1ccc(S(C)(=O)=O)c(F)c1)c1cc(NC(=O)Cc2cccc(F)c2Cl)ccn1 [Example 81, N-{4-[2-(2-chloro-3-fluorophenyl)acetamido]pyridin-2-yl}-N-[3-fluoro-4-(methanesulfonyl)phenyl]acetamide] | 97% | 895 nM

Other lines, results leading:

Row | Human P2X4 HEK Cells (FLIPR Assay) avg Efficacy | IC50 | Compound
14 | 98% | 657 nM | CC(=O)N(c1cccc(C(F)F)c1)c1cc(NC(=O)Cc2ccc(F)cc2Cl)ccn1 [Example 3, N-{4-[2-(2-chloro-4-fluorophenyl)acetamido]pyridin-2-yl}-N-[3-(difluoromethyl)phenyl]acetamide]
15 | 97% | 689 nM | CC(=O)N(c1cccc(C(F)(F)F)c1)c1cc(NC(=O)Cc2ccccc2Cl)ccn1 [Example 6, N-{4-[2-(2-chlorophenyl)acetamido]pyridin-2-yl}-N-[3-(trifluoromethyl)phenyl]acetamide]
16 | 97% | 846 nM | CC(=O)N(c1cccc(C(F)(F)F)c1)c1cc(NC(=O)Cc2ccc(F)cc2Cl)ccn1 [Example 7, N-{4-[2-(2-chloro-4-fluorophenyl)acetamido]pyridin-2-yl}-N-[3-(trifluoromethyl)phenyl]acetamide]
17 | 97% | 681 nM | CC(=O)N(c1cccc(C(F)(F)F)c1)c1cc(NC(=O)Cc2cccc(F)c2Cl)ccn1 [Example 8, N-{4-[2-(2-chloro-3-fluorophenyl)acetamido]pyridin-2-yl}-N-[3-(trifluoromethyl)phenyl]acetamide]
18 | 99% | 749 nM | CC(=O)N(c1cccc(C(F)(F)F)c1)c1cc(NC(=O)Cc2c(Cl)cccc2Cl)ccn1 [Example 9, N-{4-[2-(2,6-dichlorophenyl)acetamido]pyridin-2-yl}-N-[3-(trifluoromethyl)phenyl]acetamide]
19 | 99% | 437 nM | CC(=O)N(c1ccc(Cl)c(C#N)c1)c1cc(NC(=O)Cc2cccc(F)c2Cl)ccn1 [Example 18, N-(4-chloro-3-cyanophenyl)-N-{4-[2-(2-chloro-3-fluorophenyl)acetamido]pyridin-2-yl}acetamide]
20 | 99% | 748 nM | CC(=O)N(c1ccc(F)c(C#N)c1)c1cc(NC(=O)Cc2cccc(C(F)(F)F)c2Cl)ccn1 [Example 20, N-(4-{2-[2-chloro-3-(trifluoromethyl)phenyl]acetamido}pyridin-2-yl)-N-(3-cyano-4-fluorophenyl)acetamide]
21 | 100% | 909 nM | CC(=O)N(c1ccc(F)cc1)c1cc(NC(=O)Cc2ccc(Cl)cc2C(F)(F)F)ccn1 [Example 31, N-(4-{2-[4-chloro-2-(trifluoromethyl)phenyl]acetamido}pyridin-2-yl)-N-(4-fluorophenyl)acetamide]
22 | 99% | 938 nM | CC(=O)N(c1ccc(F)cc1)c1cc(NC(=O)Cc2cccc(C(F)(F)F)c2Cl)ccn1 [Example 35, N-(4-{2-[2-chloro-3-(trifluoromethyl)phenyl]acetamido}pyridin-2-yl)-N-(4-fluorophenyl)acetamide]
23 | 100% | 406 nM | CC(=O)N(c1ccc(C)cc1)c1cc(NC(=O)Cc2ccccc2Cl)ccn1 [Example 43, N-{4-[2-(2-chlorophenyl)acetamido]pyridin-2-yl}-N-(4-methylphenyl)acetamide]
24 | 99% | 607 nM | CC(=O)N(c1ccc(C)cc1)c1cc(NC(=O)Cc2ccc(F)cc2Cl)ccn1 [Example 44, N-{4-[2-(2-chloro-4-fluorophenyl)acetamido]pyridin-2-yl}-N-(4-methylphenyl)acetamide]
25 | 98% | 519 nM | CC(=O)N(c1ccc(OC(F)F)cc1)c1cc(NC(=O)Cc2ccccc2Cl)ccn1 [Example 47, N-{4-[2-(2-chlorophenyl)acetamido]pyridin-2-yl}-N-[4-(difluoromethoxy)phenyl]acetamide]
26 | 99% | 579 nM | CC(=O)N(c1ccc(OC(F)F)cc1)c1cc(NC(=O)Cc2cccc(F)c2Cl)ccn1 [Example 48, N-{4-[2-(2-chloro-3-fluorophenyl)acetamido]pyridin-2-yl}-N-[4-(difluoromethoxy)phenyl]acetamide]
